Experiments:
BTK WT = BTK WT (Homo sapiens (Human), UniProt Q06187); assay: Lantha screening kinase reaction, inhibition of BTK WT; assay type: biochemical
Method: The compound was predissolved in 100% DMSO. 10 mM drug stock solution was obtained by dissolution at room temperature and then serially diluted with 8 vol % DMSO solution to a final concentration of 10-0.005 μM. […] Among the wells, the kinase in the blank well was replaced with a reaction buffer and the kinase well (Enzyme) was not added with any drug. After shaking at 25° C. for 60 minutes in the dark, 10 μl of Detection Solution (mixture of Invitrogen PV3528 and EDTA, which was diluted with TR-FRET dilution buffer, the working concentration of EDTA was 5 mM, the working concentration of Lanthascreening Tb PY20 antibody was 0.2 nM) was added and shaken at room temperature for 30 minutes. The plates were read on a VictorX5 fluorescent plate reader (PerkinElmer) and the light absorption at an excitation wavelength of 340 nm and emission wavelengths of 500 nm and 520 nm was measured.
The calculation method for the inhibition ratio (referring to the specification of Invitrogen, PV3363) was as follows: Emission ratio (ER):Coumarin Emission (520 nm)/Fluorescein Emission (500 nm) 1. The inhibition ratio (IR):(ERkinase−ERtest compound)/(ERkinase−ERblank)×100%. 2.
The half-inhibitory concentration IC50 was calculated by fitting with XLFIT5.0 software (IDBS, UK).

wild-type EGFR kinase = wild-type EGFR kinase (Homo sapiens (Human), UniProt P00533); assay: Wild type EGFR kinase inhibition test (z-lyte); assay type: biochemical; conditions: 10 μM ATP; read-out: EGFR WT IC50
wild-type EGFR kinase, sequence (P00533 25-1210): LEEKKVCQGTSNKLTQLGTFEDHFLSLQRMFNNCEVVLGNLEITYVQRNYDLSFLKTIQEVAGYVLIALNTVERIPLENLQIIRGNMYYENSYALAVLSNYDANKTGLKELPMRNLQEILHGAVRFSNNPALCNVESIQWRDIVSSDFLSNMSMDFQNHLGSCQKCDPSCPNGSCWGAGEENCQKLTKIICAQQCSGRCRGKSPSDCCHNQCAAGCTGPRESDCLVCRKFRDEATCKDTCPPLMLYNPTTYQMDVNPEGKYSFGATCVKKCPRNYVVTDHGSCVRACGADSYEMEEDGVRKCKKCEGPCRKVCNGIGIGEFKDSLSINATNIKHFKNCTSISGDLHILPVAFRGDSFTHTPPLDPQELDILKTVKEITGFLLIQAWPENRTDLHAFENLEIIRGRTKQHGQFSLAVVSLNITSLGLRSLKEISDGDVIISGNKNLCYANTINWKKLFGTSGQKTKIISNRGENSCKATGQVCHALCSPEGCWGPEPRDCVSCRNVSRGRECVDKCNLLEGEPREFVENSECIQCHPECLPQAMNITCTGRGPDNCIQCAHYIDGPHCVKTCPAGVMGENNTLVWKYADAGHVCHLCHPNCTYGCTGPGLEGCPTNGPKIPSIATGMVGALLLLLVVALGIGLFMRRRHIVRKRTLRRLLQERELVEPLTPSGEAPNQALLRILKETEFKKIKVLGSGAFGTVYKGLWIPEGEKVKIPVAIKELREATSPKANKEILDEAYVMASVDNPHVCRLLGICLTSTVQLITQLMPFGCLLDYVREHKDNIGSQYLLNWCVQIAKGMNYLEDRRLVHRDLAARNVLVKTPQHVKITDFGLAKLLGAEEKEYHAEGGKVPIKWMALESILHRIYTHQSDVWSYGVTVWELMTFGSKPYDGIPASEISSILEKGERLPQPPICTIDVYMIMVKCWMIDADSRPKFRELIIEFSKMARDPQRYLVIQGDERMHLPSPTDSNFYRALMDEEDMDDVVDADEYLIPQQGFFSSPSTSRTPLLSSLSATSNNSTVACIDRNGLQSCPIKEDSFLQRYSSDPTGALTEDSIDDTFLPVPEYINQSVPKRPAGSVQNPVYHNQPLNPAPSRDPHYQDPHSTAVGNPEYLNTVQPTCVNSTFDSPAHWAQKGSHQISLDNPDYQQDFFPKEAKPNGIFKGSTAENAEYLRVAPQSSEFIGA
Source text: All the following reagents used in z-lyte test are commercially available from Invitrogen.
The calculation method for the inhibition ratio (referring to the specification of Invitrogen, PV3363) was as follows: ER=Coumarin Emission(450 nm)/Fluorescein Emission(520 nm) 1. Phosphorylation ratio=(1−((ER×C3520nm−C3450nm)/((C1450nm−C3450nm)+ER×(C3520nm−C1520nm))))×100% 2. Inhibition ratio (IR)=(1−phosphorylation ratio of the test compound)/(phosphorylation ratio of C2))×100% 3.
The half-inhibitory concentration IC50 was calculated by fitting with XLFIT 5.0 software (IDBS, UK).

in vivo = conditions: male, ICR, mouse, in vivo, po, 30 mg/kg
Method: Test Animals: ICR mice, weight 28-30 g, male, totally 12, purchased from SLAC Laboratory Animal Co., Ltd. Mice were fasting one night before administration and freely fed 4 hours after administration.
Administration and Blood collection: 6 mice were administered intragastrically (PO) in a administered dosage of 30 mg/kg and a administered volume of 10 mL/kg. One administration route was subjected with 6 mice, blood samples of three mice were collected at one time point, and blood samples of another three mice were collected at alternate time point alternately. Blood was collected at 8 time points of 0.083, 0.25, 0.5, 1, 2, 4, 8, 24 h after administration respectively.
Animals were manually controlled at the time of collection and approximately 80 μL of blood was collected from the mice fundus venous plexus into a tube containing K2EDTA. The collected blood sample was put on wet ice, centrifuged within 15 min (8000 rpm, 4 min at 4° C.), and then the plasma sample was taken and stored at minus 20° C. till analysis. The compounds were prepared on the day of the experiment.
Solvent excipient information: DMSO (brand: Sigma, batch number: SHBD2446V); 2-hydroxypropyl-3-cyclodextrin (brand: Sigma, batch number: BCBN8227V), acetic acid (brand: Sinopharm Group, batch number: 20150616), sodium acetate (Brand: GENERAL-REAGENT, batch number: P1246037).
Preparation of a 3 mg/mL PO dosing solution: the solvent was a solution of 5% DMSO and 95% PH4.5 (sodium acetate-acetate) in 20% of 2-hydroxypropyl-β-cyclodextrin.
Analytical method: Plasma samples were analyzed by liquid chromatography-tandem mass spectrometry (Instrument type: Triple Quad™ 4000).
Preparation of the standard curve: preparing a standard curve of the test compound 1n the plasma matrix of ICR mice with a linear range of 1.00-3000 ng/mL, and preparing control samples at low, medium and high concentrations of 3 ng/mL, 500 ng/mL, and 2400 ng/mL respectively.
Treatment of biological samples: the frozen plasma samples were thawed on ice, and after the samples were thawed, they were vortexed on a vortex for 5 min. 20 μL of plasma sample was added to a 96-well plate, and 200 μL of acetonitrile (brand: Merck, Lot: 1854029643) containing an internal standard dexamethasone (Brand: NIFDC, Lot: 1N2V-DPGY, 2000 ng/mL) was added to precipitate protein, which were vortexed for 5 min, and then centrifuged at 3700 rpm and 4° C. for 15 min. The supernatant was extracted and twice centrifuged under the same conditions, and finally 2 μL of the supernatant solution was analyzed by LC-MS/MS.

BTK WT, sequence (Q06187 whole entry): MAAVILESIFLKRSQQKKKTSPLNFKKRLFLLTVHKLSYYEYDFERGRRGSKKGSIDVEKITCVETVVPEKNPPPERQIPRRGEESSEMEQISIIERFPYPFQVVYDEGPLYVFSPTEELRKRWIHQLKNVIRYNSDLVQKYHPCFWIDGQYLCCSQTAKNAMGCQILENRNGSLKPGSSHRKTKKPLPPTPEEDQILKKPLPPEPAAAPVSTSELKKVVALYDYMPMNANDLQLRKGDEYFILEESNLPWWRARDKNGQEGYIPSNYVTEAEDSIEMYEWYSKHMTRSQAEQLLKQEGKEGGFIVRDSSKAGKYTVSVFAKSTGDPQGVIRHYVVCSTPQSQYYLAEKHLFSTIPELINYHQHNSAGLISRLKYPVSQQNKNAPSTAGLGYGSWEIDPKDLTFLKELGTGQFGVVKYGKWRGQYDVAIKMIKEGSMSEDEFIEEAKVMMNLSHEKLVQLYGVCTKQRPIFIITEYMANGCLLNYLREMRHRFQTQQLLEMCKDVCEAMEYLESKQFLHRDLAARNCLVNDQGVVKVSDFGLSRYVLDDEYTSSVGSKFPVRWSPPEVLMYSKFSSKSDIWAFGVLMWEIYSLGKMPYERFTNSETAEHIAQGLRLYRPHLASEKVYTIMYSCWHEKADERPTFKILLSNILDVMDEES

In the case of C=CC(=O)N1CCC[C@@H](Nc2cc3c(c(Nc4ccc(N5CCOCC5)cc4)n2)C(=O)NC3)C1 [Compound G-107], the IC50 (BTK WT) is reported as 5 nM.

With C=CC(=O)N1CCCCC(N(C)c2nc(Nc3ccc(N4CCOCC4)cc3)c3c(c2F)CNC3=O)C1 (stereo not drawn) [Compound G-73, 6-((1-acryloylazacycloheptan-3-yl)(methyl)amino)-7-fluoro-4-(4-morpholin)-1H-pyrrolo[3,4-c]pyridine-3(2H)-one] the IC50 (wild-type EGFR kinase) was 1560 nM and the IC50 (BTK WT) was 5 nM.

Work on C=CC(=O)N1CCC2(CCN(c3nc(-c4cnn(C)c4)c4c(c3F)CNC4=O)C2)C1 (stereo not drawn) [Compound G-77] yielded an IC50 (wild-type EGFR kinase) greater than 10000 nM and an IC50 (BTK WT) of 51 nM.

Work on C=CC(=O)N1CCCC(N(CC)c2nc(Nc3ccc(N4CCOCC4)cc3)c3c(c2F)CNC3=O)C1 (stereo not drawn) [Compound G-74, 6-((1-acryloylpiperidin-3-yl)(ethyl)amino)-7-fluoro-4-(4-morpholin)-1H-pyrrolo[3,4-c]pyridine-3(2H)-one] yielded an IC50 (wild-type EGFR kinase) of 1370 nM and an IC50 (BTK WT) of 7 nM.

Work on C=CC(=O)N1CC2CCN(c3nc(Nc4cnn(C)c4)c4c(c3F)CNC4=O)C2C1 (stereo not drawn) [Compound G-84] yielded an IC50 (wild-type EGFR kinase) greater than 10000 nM and an IC50 (BTK WT) of 89 nM.

C=CC(=O)N1CC(N(C)c2nc(-c3cnn(C)c3)c3c(c2F)CNC3=O)CCC1C (stereo not drawn) [Compound G-65, 6-((1-acryloyl-6-methylpiperidin-3-yl)(methyl)amino)-7-fluoro-4-(1-methyl-1H-pyrazole-4-yl)-1H-pyrrolo[3,4-c]pyridine-3(2H)-one] showed an IC50 (wild-type EGFR kinase) greater than 10000 nM and an IC50 (BTK WT) of 7 nM.

With C=CC(=O)N1CCCC(Nc2nc(-c3cnn(C)c3)c3c(c2F)CNC3=O)C1 (stereo not drawn) [Compound G-54] the IC50 (wild-type EGFR kinase) was greater than 10000 nM and the IC50 (BTK WT) was 15 nM.

Work on C=CC(=O)N1CCC[C@@H](Nc2nc(Nc3ccc(N4CCN(C5COC5)C[C@@H]4C)c(F)c3)c3c(c2F)CNC3=O)C1 [Compound G-91] yielded an AUC (in vivo) of 3150 ng·h/mL, a Cmax (in vivo) of 2910 ng/mL and a Tmax (in vivo) of 0.25 h. The bioavailability (in vivo) was 21.3%, the half-life (in vivo) was 4.7 h and the IC50 (BTK WT) was 5 nM.

Work on C=CC(=O)N1CCCC(N(C)c2nc(-c3cnc(C)s3)c3c(c2F)CNC3=O)C1 (stereo not drawn) [Compound G-66, 6-((1-acryloylpiperidin-3-yl)(methyl)amino)-7-fluoro-4-(2-methylthiazole-5-yl)-1H-pyrrolo[3,4-c]pyridine-3(2H)-one] yielded an IC50 (wild-type EGFR kinase) greater than 10000 nM and an IC50 (BTK WT) of 15 nM.

For C=CC(=O)N1CC2CN(c3nc(-c4cnn(C)c4)c4c(c3F)CNC4=O)CC2C1 (stereo not drawn) [Compound G-89], the IC50 (BTK WT) was 5 nM.

In the case of C=CC(=O)N1CCCC(N(C)c2nc3c(c(Nc4cnn(C)c4)n2)C(=O)NC3)C1 (stereo not drawn) [Compound G-75, 2-((1-acryloylpiperidin-3-yl)(methyl)amino)-4-(1-methyl-1H-pyrazole-4-ylamino)-6,7-dihydrogen-5H-pyrrolo[3,4-d]pyrimidine-5-one], the IC50 (wild-type EGFR kinase) is reported as 1630 nM and the IC50 (BTK WT) is reported as 6 nM.

For C=CC(=O)N1CCCC(Nc2nc3c(c(-c4cnn(C)c4)n2)C(=O)NC3)C1 (stereo not drawn) [Compound G-58, 2-(1-acryloylpiperidin-3-ylamino)-4-(1-methyl-1H-pyrazole-4-yl)-6,7-dihydrogen-5H-pyrrolo[3,4-d]pyrimidine-5(2H)-one], the IC50 (wild-type EGFR kinase) was greater than 10000 nM and the IC50 (BTK WT) was 80 nM.

C=CC(=O)N1CCCC(Nc2nc(Nc3ccc(OCCO)cc3)c3c(c2F)CNC3=O)C1 (stereo not drawn) [Compound G-16] gave an IC50 (wild-type EGFR kinase) of 2750 nM and an IC50 (BTK WT) of 2 nM.

With C=CC(=O)N1CCCC(Nc2nc(Nc3ccc(N4CCC(O)C(C)(C)C4)cn3)c3c(c2F)CNC3=O)C1 (stereo not drawn) [Compound G-21] the IC50 (wild-type EGFR kinase) was 8310 nM and the IC50 (BTK WT) was 59 nM.

For C=CC(=O)N1CCCC(Nc2nc(Nc3cnn(C)c3)c3c(c2F)CNC3=O)C1 (stereo not drawn) [Compound G-38], the IC50 (wild-type EGFR kinase) was 1290 nM and the IC50 (BTK WT) was 2 nM.

In the case of C=CC(=O)N1CCC[C@@H](N(C)c2nc(-c3cnn(C)c3)c3c(c2F)CNC3=O)C1 [Compound G-113], the IC50 (wild-type EGFR kinase) is reported as 6170 nM and the IC50 (BTK WT) is reported as 5 nM.

In the case of C=CC(=O)N1CCC[C@@H](Nc2nc(Nc3ccc(CN4CCOCC4)cc3)c3c(c2F)CNC3=O)C1 [Compound G-97], the IC50 (BTK WT) is reported as 5 nM.

With C=CC(=O)N1CCC[C@H](Nc2nc(-c3cnn(C)c3)c3c(c2F)CNC3=O)[C@@H]1C [Compound G-109] the IC50 (wild-type EGFR kinase) was 6820 nM and the IC50 (BTK WT) was 62 nM.

C=CC(=O)N1CCC[C@@H](N(C)c2nc(-c3c[nH]c(C)n3)c3c(c2F)CNC3=O)C1 [Compound G-105] gave an IC50 (BTK WT) of 8 nM.

With C=CC(=O)N1CCC(Nc2nc(Nc3ccc(OCCOC)cc3)c3c(c2F)CNC3=O)C1 (stereo not drawn) [Compound G-9] the IC50 (wild-type EGFR kinase) was 1010 nM and the IC50 (BTK WT) was 7 nM.

C=CC(=O)N1CCCC(Nc2nc(Nc3ccc(N4CCN(C)CC4)nc3)c3c(c2F)CNC3=O)C1 (stereo not drawn) [Compound G-18] showed an IC50 (wild-type EGFR kinase) of 1600 nM and an IC50 (BTK WT) of 41 nM.

For C=CC(=O)N1CCCCC(Nc2nc(-c3cnn(C)c3)c3c(c2F)CNC3=O)C1 (stereo not drawn) [Compound G-47], the IC50 (wild-type EGFR kinase) was greater than 10000 nM and the IC50 (BTK WT) was 75 nM.

For C=CC(=O)N1C[C@H](N(C)c2nc(Nc3ccc(N4CCOCC4)c(F)c3)c3c(c2F)CNC3=O)CC[C@@H]1C [Compound G-92], the IC50 (BTK WT) was 8 nM.

Compound C=CC(=O)N1CCCC(N(C)c2nc(-c3cnn(CCN4CCOCC4)c3)c3c(c2F)CNC3=O)C1 (stereo not drawn) [Compound G-64, 6-((1-acryloylpiperidin-3-yl)(methyl)amino)-7-fluoro-4-(1-(2-morpholinethyl)-1H-pyrazole-4-yl)-1H-pyrrolo[3,4-c]pyridine-3(2H)-one] has an IC50 (wild-type EGFR kinase) greater than 10000 nM and an IC50 (BTK WT) of 62 nM.

For C=CC(=O)N1CCC[C@@H](N(C)c2nc(-c3cnc(C)s3)c3c(c2F)CNC3=O)C1 [Compound G-94], the IC50 (BTK WT) was 20 nM.

Work on C=CC(=O)N1CCCC(N(C)c2nc(Nc3cnn(C)c3)c3c(c2F)CNC3=O)C1 (stereo not drawn) [Compound G-70, 6-((1-acryloylpiperidin-3-yl)(methyl)amino)-7-fluoro-4-(1-methyl-1H-pyrazole-4-ylamino)-1H-pyrrolo[3,4-c]pyridine-3(2H)-one] yielded an IC50 (wild-type EGFR kinase) greater than 10000 nM and an IC50 (BTK WT) of 5 nM.

For C=CC(=O)N1CCC[C@H](N(C)c2nc(-c3cnn(C)c3)c3c(c2F)CNC3=O)C1 [Compound G-112], the IC50 (wild-type EGFR kinase) was greater than 10000 nM and the IC50 (BTK WT) was 18 nM.

C=CC(=O)N1CCCC(Nc2nc(-c3cnc(C)s3)c3c(c2F)CNC3=O)C1 (stereo not drawn) [Compound G-53] gave an IC50 (wild-type EGFR kinase) of 7440 nM and an IC50 (BTK WT) of 51 nM.

Work on C=CC(=O)N1CCCC(Nc2nc(Nc3ccc(N4CCN(C5COC5)CC4C)cn3)c3c(c2F)CNC3=O)C1 (stereo not drawn) [Compound G-22] yielded an IC50 (BTK WT) of 66 nM.

C=CC(=O)N1C[C@H](Nc2nc(Nc3ccc(N4CCN(C5COC5)C[C@@H]4C)c(F)c3)c3c(c2F)CNC3=O)CC[C@@H]1C [Compound G-95] showed an IC50 (BTK WT) of 5 nM.

Compound C=CC(=O)N1C[C@H](N(C)c2nc(-c3cnn(C)c3)c3c(c2F)CNC3=O)CC[C@H]1C [Compound G-99] has an IC50 (BTK WT) of 18 nM.

C=CC(=O)N1CCC[C@@H](Nc2nc(Nc3ccc(N4CCOC[C@@H]4C)cc3F)c3c(c2F)CNC3=O)C1 [Compound G-102] gave an IC50 (BTK WT) of 5 nM.

Compound C=CC(=O)N1CCCC(Nc2nc(Nc3ccc(C(=O)N4CCOCC4)cc3)c3c(c2F)CNC3=O)C1 (stereo not drawn) [Compound G-24] has an IC50 (wild-type EGFR kinase) of 1790 nM and an IC50 (BTK WT) of 5 nM.

Reference: patent US11155546B2, “4,6,7-trisubstituted 1,2-dihydropyrrolo[3,4-c]pyridin/pyrimidin-3-one derivatives and uses thereof” (SHANGHAI HAIYAN PHARMACEUTICAL TECHNOLOGY CO., LTD., priority 2017, dated 2021)
